The values that follow come from patent publication US9340543B2, “Helquat derivatives, preparation thereof, and use thereof as medicaments” (USTAV ORGANICKE CHEMIE A BIOCHEMIE AKADEMIE VED CR, V.V.I., priority 2013, dated 2016).

In assay [1] the test system is LoVo. Briefly: CellTiter-Glo luminescent cell viability assay (ATP quantification), LoVo. The class given is cell-based. The note with it: Homo sapiens, LoVo, colorectal carcinoma cells, 72 h treatment. Here is the method:
(§1) Influence of the test compounds on viability (proliferation) of cell lines used was investigated in concentration range 0-100 μmol·l^−1.
Adherent cell line LoVo is a permanent in vitro culture derived from tissue of a patient with colorectal carcinoma. LoVo cell line was cultivated in DMEM medium (Sigma-Aldrich, cat. no. D8437) with addition of 2 mmol·l^−1 glutamine (Invitrogen, see above), 10% fetal bovine serum (FBS, Sigma-Aldrich, see above), 100 IU/ml peniciline, 100 μg/ml streptomycine (Sigma-Aldrich, see above). Passaging was performed twice a week. After washing of cells with sterile PBS, the cells were released by 0.25% trypsin/EDTA (Sigma-Aldrich, see above) at 37° C. for 2 minutes. The trypsin was inactivated by addition of 2 volumes of complete medium, cells were then centrifuged (250×g, 5 min), resuspended, and transferred in the amount needed into a new cultivation bottle with fresh medium. Population doubling time of LoVo cell line was 39 h under the cultivation conditions used.
(§2) In order to test the sensitivity of the cell lines towards the studied helquats, cytotoxity test for cell viability assessment based on ATP quantification in cell lysates was used (CellTiter-Glo® Luminescent Cell Viability Assay, Promega, cat. no. G7571). In this test, ATP in cell lysates is detected using luciferase reaction. Luminescence intensity correlates with the ATP level and thus with quantity of metabolically active (viable) cells. IC50 value serves as the output, that is the concentration of the test compound which leads to 50% reduction in number of viable cells as compared to control, untreated population. To this end, IC50 value reflects efficiency of the test compound with regard to the given cell line.
(§3) Cells in the exponential growth phase were seeded into a 96-well microtiter plate were plated at 3000 cells per well. Each well contained 90 μl of cell suspension. The next day, 10 μl of 10× concentrated test compound solutions were added. The effect of helquats was investigated in concentration range 1 to 100 μmol·l^−1 (e.g. 1; 2.5; 5; 7.5; 10; 15; 25; 50 and 100 μmol·l^−1). Apart from the section containing the concentration series of the test compound, each well contained 2 control columns, the first with pure medium (so called blank) and the second with cells in medium without the test compounds (control). Into wells containing controls and blanks, volume of solvent (water) equal to the volume of added compound solutions was added. After 72 h of incubation with the test compounds viability was determined according to the manufacturer's instructions. In short: microtiter well plate was left 30 min to reach the room temperature after it has been removed from the incubator. Then, into each well, 100 μl of the prepared detection agent was added. Next, the well plate was shaken for 2 min to complete the full lysis. Next, after the well had been left in the dark for 15 min, the luminescence was measured in each well using luminometer (Tecan Genios, Austria).
(§4) IC50 value represents concentration of the test compound, which leads to 50% reduction of viable cells (inhibition of cell growth) after 72 h of the treatment. Each helquat concentration was tested in triplicates in a IC50 quantification and at least 3 independent IC50 quantification experiments were performed. IC50 values over 100 μmol·l^−1 were obtained by extrapolation of data measured in concentration range 0-100 μmol·l^−1 for the given helquat.

The test system of assay [2] is NHDF-Ad. Briefly: CellTiter-Glo luminescent cell viability assay (ATP quantification), NHDF-Ad normal cells. It is filed as cell-based. As to conditions: normal human dermal fibroblasts, 72 h treatment.
From the text: as §1
Normal human dermal fibroblasts were cultivated without antibiotics in basal medium for fibroblasts (ATCC/LGC Standards, cat. no. PCS-201-030) with added “Fibroblast Growth Kit-Low serum” (ATCC/LGC Standards, cat. no. PCS-201-041) containing 2% FBS, L-glutamine, hydrocortisone, ascorbic acid, rh FGF beta, rh insulin. When 90% confluency was reached the fibroblasts were washed with sterile PBS (5 ml) and dissociated by addition of 0.25% solution of trypsin/EDTA (2 ml; 2 min; 37° C.). After that 5 ml of cultivation medium for fibroblasts was added and the cells were centrifuged (180×g, 7 min), the cell pellet was resuspended, and transferred in the amount needed into a new cultivation bottle with fresh medium. The same cell release procedure was applied when the cells were to be used in experiments. The cells were used in experiments between the 3rd and the 15th passage after defreeezing. Population doubling time of NHDF-Ad cell line was 33 h under the cultivation conditions used.
as §2, §3, §4
(Cellular ATP, detected with luciferase, serves as a proxy for viable cell number.)

Assay [3] concerns HeLa. Briefly: CellTiter-Glo luminescent cell viability assay (ATP quantification), HeLa. The class given is cell-based. The note with it: cervical cancer cells, 72 h treatment, viable cells by ATP luminescence. The procedure: as §1
Adherent cell line HeLa is a permanent in vitro culture derived from cervical cancer. HeLa cell line was cultivated in RPMI 1640 medium (Dutch modification) (Sigma-Aldrich, cat. no. R7638) with addition of 2 mmol·l^−1 glutamine (Invitrogen, see above), 10% fetal bovine serum (FBS, Sigma-Aldrich, see above), 100 IU/ml peniciline, 100 μg/ml streptomycine (Sigma-Aldrich, see above). Passaging was performed twice a week. After washing of cells with sterile PBS the cells were released by 0.25% trypsin/EDTA (Sigma-Aldrich, cat. no. T4049) at 37° C. for 2 minutes. The trypsin was inactivated by addition of 2 volumes of complete medium, cells were then centrifuged (250×g, 5 min), the cell pellet was resuspended, and transferred in the amount needed into a new cultivation bottle with fresh medium. Population doubling time of […] cell line was 25 h under the cultivation conditions used.
as §2, §3, §4

Assay [4] relates to CCRF-CEM. Briefly: CellTiter-Glo luminescent cell viability assay (ATP quantification), CCRF-CEM. The class given is cell-based. The note with it: acute lymphoblastic leukemia cells, 72 h treatment, viable cells by ATP luminescence. Here is the method: as §1
Suspension cell line CCRF-CEM is a permanent in vitro culture of acute lymphoblastic leukemia. CCRF-CEM cell line was cultivated in RPMI 1640 medium (Sigma-Aldrich, cat. no. R8758) with addition of 2 mmol·l^−1 glutamine (Invitrogen, cat. no. 35050-038), 10% fetal bovine serum (FBS, Sigma-Aldrich, cat. no. F9665), 100 IU/ml peniciline, 100 μg/ml streptomycine (Sigma-Aldrich, cat. no. P0781). Passaging was performed 2-3× a week. Population doubling time of CCRF-CEM cell line was 20 h under the cultivation conditions used.
as §2, §3, §4

The test system of assay [5] is MOLT-4. Briefly: CellTiter-Glo luminescent cell viability assay (ATP quantification), MOLT-4. The class given is cell-based. As to conditions: acute lymfoblastic leukemia cells, 72 h treatment, viable cells by ATP luminescence. Here is the method: as §1
Suspension cell line MOLT-4 is a permanent in vitro culture of acute lymfoblastic leukemia. Linie MOLT-4 cell line was cultivated in RPMI 1640 medium (Sigma-Aldrich, see above) with addition of 2 mmol glutamine (Invitrogen, see above), 10% fetal bovine serum (FBS, Sigma-Aldrich, see above), 100 IU/ml peniciline, 100 μg/ml streptomycine (Sigma-Aldrich, see above). Passaging was performed 2-3× a week. Population doubling time of […] cell line was 25 h under the cultivation conditions used.
as §2, §3, §4

The test system of assay [6] is HUVEC. Briefly: CellTiter-Glo luminescent cell viability assay (ATP quantification), HUVEC normal cells. It is filed as cell-based, human. As to conditions: 72 h treatment. The procedure: as §1
Normal human endothelial cells from umbilical vein are adherent cells cultivated in plastic Petri dishes coated with collagen I. Into the cultivation medium (E-STIM™; BD Biosciences, cat. co. 355054) already containing 2% FBS (fetal bovine serum), hydrocortisone and heparin the following two further ingredients were added: epidermal growth factor (EGF, 5 μg) and mixture of factors facilitating growth of endothelial cells (ECGS, 100 mg). […] The cells were passaged after reaching 90% confluency by dissociation using 0.25% solution of trypsin/EDTA (1 ml; 3 min; 37° C.). After that 5 ml of complete cultivation medium E-STIM™ was added and the cells were centrifuged (180×g, 7 min), the pellet was resuspended, and transferred in the amount needed into a new Petri dish with fresh medium. The cells were used in experiments between the 3rd and the 8th passage after defreezing. Population doubling time of HUVEC cell line was 38 h under the cultivation conditions used.
as §2, §3, §4

[7] abbreviates: numeric bound, values over 100 obtained by extrapolation of data measured at 0-100 μmol·l−1.
Where [8] appears, read: Fibroblast, numeric bound, values over 100 obtained by extrapolation of data measured at 0-100 μmol·l−1.
The mark [9] stands for this setting: HUVEC, normal human endothelial cells, numeric bound, values over 100 obtained by extrapolation of data measured at 0-100 μmol·l−1.
Setting [10] is: viable cells by ATP luminescence, class symbols.
[11] abbreviates: Fibroblast, viable cells by ATP luminescence, class symbols.
[12] abbreviates: HUVEC, normal human endothelial cells from umbilical vein, viable cells by ATP luminescence, class symbols.

pIC50: −log10 of the molar value.

For `CN(C)c1ccc(/C=C/c2cc[n+]3c(c2)-c2c(ccc4c2-c2cccc[n+]2CCC4)CCC3)cc1` (racemic) [(rac)-35, (rac)-(E)-2-(4-(dimethylamino)styryl)-6,7,8,11,12,13-hexahydrodipyrido[1,2-a:1′,2′-a′]benzo[2,1-c:3,4-c′]bisazepinediium trifluoromethanesulfonate], the pIC50 in assay [1] (setting [7]) was under 3.82; in assay [2] (setting [8]), under 3.82; in assay [3] (Homo sapiens, HeLa) it was 3.82 to 4.29; in assay [4] (Homo sapiens, CCRF-CEM), 3.82 to 4.29; in assay [5] (Homo sapiens, MOLT-4), 3.82 to 4.29; in assay [6] (setting [9]) it was under 3.82.
In the case of `C(=C\c1cc[n+]2c(c1)-c1c(ccc3c1-c1c4ccccc4cc[n+]1CC3)CC2)/c1cc2c3c(c1)CCCN3CCC2` (racemic) [(rac)-20, (rac)-(E)-13-(2-(1,2,3,5,6,7-hexahydropyrido[3,2,1-ij]quinolin-9-yl)vinyl)-4,5,8,9-tetrahydroisoquinolino[2,1-k]pyrido[2,1-a][2,9]phenanthroline-3,10-diium trifluoromethanesulfonate], the pIC50 was 3.82 to 4.29 in assay [1] (setting [10]); 3.82 to 4.29 in assay [2] (setting [11]); 4.30 to 4.96 in assay [3] (Homo sapiens, HeLa); 4.30 to 4.96 in assay [4] (Homo sapiens, CCRF-CEM); 4.30 to 4.96 in assay [5] (Homo sapiens, MOLT-4); 3.82 to 4.29 in assay [6] (setting [12]).
In the case of `Cc1c(C)c2c(c3c1CC[n+]1ccc(/C=C/c4ccc(N(C)C)cc4)cc1-3)-c1c3ccccc3cc[n+]1CC2` (racemic) [(rac)-1, (rac)-(E)-13-(4-(dimethylamino)styryl)-6,7-dimethyl-4,5,8,9-tetrahydroiso-quinolino[1,2-a]pyrido[1,2-k][2,9]phenanthroline-3,10-diium trifluoromethanesulfonate], the pIC50 in assay [2] (setting [11]) was 3.82 to 4.29; in assay [3] (Homo sapiens, HeLa) it was 4.30 to 4.96; in assay [4] (Homo sapiens, CCRF-CEM), 4.30 to 4.96; in assay [5] (Homo sapiens, MOLT-4), 4.30 to 4.96; in assay [6] (setting [9]) it was under 3.82.
With `CN(C)c1ccc(/C=C/C=C/c2cc[n+]3c(c2)-c2c(ccc4c2-c2cccc[n+]2CC4)CC3)cc1` [compound 30, 2-((1E,3E)-4-(4-(dimethylamino)phenyl)buta-1,3-dien-1-yl)-6,7,10,11-tetrahydrodipyrido[2,1-a:1′,2′-k][2,9]phenanthroline-5,12-diium trifluoromethanesulfonate], the pIC50 in assay [1] (setting [7]) is under 3.82; in assay [2] (setting [8]) it was under 3.82; in assay [3] (Homo sapiens, HeLa), 3.82 to 4.29; in assay [4] (Homo sapiens, CCRF-CEM) it was 3.82 to 4.29; in assay [5] (Homo sapiens, MOLT-4), 3.82 to 4.29; in assay [6] (setting [9]) it was under 3.82.
As for `Cc1c(C)c2c(c3c1CC[n+]1ccc(/C=C/c4ccc(N(C)C)cc4)cc1-3)-c1c3ccccc3cc[n+]1CC2` [(P)-1, (P)-(E)-13-(4-(dimethylamino)styryl)-6,7-dimethyl-4,5,8,9-tetrahydroiso-quinolino[1,2-a]pyrido[1,2-k][2,9]phenanthroline-3,10-diium trifluoromethanesulfonate], the pIC50 in assay [2] (setting [10]) was 3.82 to 4.29; in assay [3], 4.30 to 4.96; in assay [4] it was 4.30 to 4.96; in assay [5], 4.30 to 4.96; in assay [6] (normal human endothelial cells, numeric bound, values over 100 obtained by extrapolation of data measured at 0-100 μmol·l−1), under 3.82.
For `CN(C)c1ccc(/C=C/c2cccc3[n+]2CCCc2ccc4c(c2-3)-c2cccc(/C=C/c3ccc(N(C)C)cc3)[n+]2CCC4)cc1` (racemic) [(rac)-41, (rac)-4,15-bis((E)-4-(dimethylamino)styryl)-6,7,8,11,12,13-hexahydro-dipyrido[1,2-a:1′,2′-a′]benzo[2,1-c:3,4-c′]bisazepinediium trifluoromethanesulfonate], the pIC50 in assay [1] (setting [10]) was 4.30 to 4.96; in assay [2] (setting [11]), 3.82 to 4.29; in assay [3] (Homo sapiens, HeLa), 4.30 to 4.96; in assay [4] (Homo sapiens, CCRF-CEM), 4.30 to 4.96; in assay [5] (Homo sapiens, MOLT-4), 4.30 to 4.96; in assay [6] (setting [12]), 3.82 to 4.29.

Usually pIC50 stands for the IC50 on a negative log10 scale, so that one unit is a factor of ten.
